# Measurements as given in publication PMC10232832, “ANO1-downregulation induced by schisandrathera D: a novel therapeutic target for the treatment of prostate and oral cancers” (Frontiers in Pharmacology, 2023).
# Biological target: T1, Anoctamin 1 (ANO1) (Homo sapiens, UniProt Q5XXA6)
# T1 construct: ANO1 stably expressed in FRT cells
# T1 sequence (Q5XXA6 1-986): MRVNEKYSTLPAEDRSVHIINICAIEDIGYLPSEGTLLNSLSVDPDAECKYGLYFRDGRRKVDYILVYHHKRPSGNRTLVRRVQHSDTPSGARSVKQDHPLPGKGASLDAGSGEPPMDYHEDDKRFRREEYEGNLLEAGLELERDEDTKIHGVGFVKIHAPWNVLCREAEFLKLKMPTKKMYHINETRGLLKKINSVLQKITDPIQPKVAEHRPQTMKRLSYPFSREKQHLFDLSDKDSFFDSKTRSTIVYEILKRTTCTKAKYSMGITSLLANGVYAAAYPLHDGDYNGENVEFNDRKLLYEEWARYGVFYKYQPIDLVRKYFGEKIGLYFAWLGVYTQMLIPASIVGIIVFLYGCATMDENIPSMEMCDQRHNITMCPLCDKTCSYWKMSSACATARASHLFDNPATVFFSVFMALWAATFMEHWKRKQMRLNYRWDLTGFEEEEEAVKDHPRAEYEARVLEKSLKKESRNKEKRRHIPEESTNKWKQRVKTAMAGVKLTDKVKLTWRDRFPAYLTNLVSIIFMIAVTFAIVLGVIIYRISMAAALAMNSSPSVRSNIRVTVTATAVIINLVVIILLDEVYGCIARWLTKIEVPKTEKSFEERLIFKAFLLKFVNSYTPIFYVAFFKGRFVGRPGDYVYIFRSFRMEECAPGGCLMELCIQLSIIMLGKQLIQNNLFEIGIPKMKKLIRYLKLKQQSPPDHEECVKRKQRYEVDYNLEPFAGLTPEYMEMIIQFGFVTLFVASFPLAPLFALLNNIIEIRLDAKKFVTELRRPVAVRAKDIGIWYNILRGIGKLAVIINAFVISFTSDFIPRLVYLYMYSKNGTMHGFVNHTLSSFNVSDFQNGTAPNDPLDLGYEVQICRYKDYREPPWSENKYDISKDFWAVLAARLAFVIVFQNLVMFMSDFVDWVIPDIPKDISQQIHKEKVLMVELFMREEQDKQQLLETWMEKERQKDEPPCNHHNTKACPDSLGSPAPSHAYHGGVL
# Experiment: YFP fluorescence quenching (iodide influx) assay in FRT cells expressing ANO1 and YFP
# Format: cell-based
smiles,measurement,value
"COc1cc(C[C@@H](C)[C@@H](C)Cc2cc(O)c(OC)c(OC)c2)cc(O)c1OC [compound 11, schisandrathera D]",IC50,5.24 µM
